This is an account of results in PMC11822212, “High-throughput screening identifies Aurora kinase B as a critical therapeutic target for Merkel cell carcinoma” (Nature Communications, 2025).

Experiment [1] deals with MCC13 cells (VN-MCC). Nature of the experiment: qHTS cell viability (CellTiter-Glo, 72 h; primary and follow-up small molecule screen). In kind it is cell-based, human. Background: In qHTS, concentration-response curves come from the screen itself.
In experiment [2] the test system is MCC26 cells (VN-MCC). The experiment is described as above. Format: cell-based, human.
Experiment [3] concerns UISO cells (VN-MCC). The experiment is described as above. In kind it is cell-based, human.
Experiment [4] deals with WAGA cells (VP-MCC). The description is as above. Format: cell-based, human.
The test system of experiment [5] is MKL-1 cells (VP-MCC). The experiment is described as above. Format: cell-based, human.
Experiment [6] concerns MKL-2 cells (VP-MCC). Described as above. Format: cell-based, human.
For experiment [7], the system named is HACAT cells. Put plainly: qHTS cell viability (CellTiter-Glo, 72 h; primary screen), control cell line. Format: cell-based, human.
Experiment [8] deals with HEK293T cells. Described as above. In kind it is cell-based, human.
The test system of experiment [9] is NIH-3T3 cells. The experiment is described as above. Format: cell-based, mouse.
The subject of experiment [10] is CRL-7250 cells. The description is as above. Format: cell-based.
The test system of experiment [11] is MCC cell lines (WAGA, MKL-1, MKL-2, MCC13, MCC26, UISO). Nature of the experiment: qHTS cell viability, all six MCC cell lines as a group (mean AUC, MCC.avg). In kind it is cell-based, human. The settings on record: mean AUC of six MCC cell lines.
The test system of experiment [12] is VP-MCC cell lines (WAGA, MKL-1, MKL-2). Put plainly: qHTS cell viability, VP-MCC cell lines as a group (mean AUC, VP.MCC.avg). In kind it is cell-based, human. The settings on record: for VP-MCC_Avg_AUC: mean AUC of VP-MCC cell lines.
The test system of experiment [13] is VN-MCC cell lines (MCC13, MCC26, UISO). Nature of the experiment: qHTS cell viability, VN-MCC cell lines as a group (mean AUC, VN.MCC.avg). Format: cell-based, human. The note with it: for VN-MCC_Avg_AUC: mean AUC of VN-MCC cell lines.
Experiment [14] deals with control cell lines (HACAT, HEK293T, CRL-7250, NIH-3T3). Put plainly: qHTS cell viability, control cell lines as a group (mean AUC, Control.avg). Format: cell-based. The note with it: mean AUC of control cell lines.
The test system of experiment [15] is six MCC cell lines and four control cell lines. Nature of the experiment: qHTS cell viability, all 10 cell lines screened. Format: cell-based.
Where [16] appears, read: MIPE library, 11-point DRC, sheet S2E.
Setting [17] is: MIPE library, 11-point DRC, control cell line, sheet S2E.

For the compound `C=C1C(=O)[C@]23[C@H](O)[C@H]1CC[C@H]2[C@@]12CO[C@]3(O)[C@@H](O)[C@@H]1C(C)(C)CC[C@@H]2O` [Oridonin], in experiment [1] (setting [16]), the MCC13_AUC came to 444.187. In experiment [2] (setting [16]), this compound showed an MCC26_AUC of 486.711. Further, in [3] (setting [16]), the UISO_AUC is recorded as 376.109. Further, the WAGA_AUC in experiment [4] (setting [16]) stood at 351.193. The compound further displayed an MKL1_AUC in experiment [5] (setting [16]) of 359.043. In experiment [6] (setting [16]), this compound showed an MKL2_AUC of 318.538. The HACAT_AUC in [7] (setting [17]) amounted to 442.799. In addition, the HEK293T_AUC in experiment [8] (setting [17]) stood at 399.439. The NIH3T3_AUC in experiment [9] (setting [17]) is on record as 414.657. The same compound returned a CRL7250_AUC in experiment [10] (setting [17]) of 432.105. For the same compound, the MCC_Avg_AUC in experiment [11] (MIPE library, sheet S2E) is on record as 389.297. The Control-VP-MCC in experiment [12] (MIPE library, Control AUC minus VP-MCC AUC (therapeutic window), sheet S2E) is 79.3252. Also, the VP-MCC_Avg_AUC in experiment [12] (MIPE library, sheet S2E) was 342.925. Besides, the Control-VN-MCC in experiment [13] (MIPE library, Control AUC minus VN-MCC AUC (therapeutic window), sheet S2E) was -13.4189. The compound further gave a VN-MCC_Avg_AUC in [13] (MIPE library, sheet S2E) of 435.669. In [14] (MIPE library, sheet S2E), this compound gave a Control_Avg_AUC of 422.25. The compound also displayed a Control-MCC in experiment [15] (MIPE library, Control AUC minus MCC AUC (therapeutic window), sheet S2E) of 32.9531.
As for `CCCCC1C(=O)N(c2ccccc2)N(c2ccc(O)cc2)C1=O` (stereo not shown) [Oxyphenbutazone], in experiment [1] (NPC library, qHTS dose-response AUC, MCC13), the MCC13_AUC turned out to be 405.464. Besides, the MCC26_AUC in experiment [2] (NPC library, qHTS dose-response AUC, MCC26) is on record as 450.163. The UISO_AUC in experiment [3] (NPC library, qHTS dose-response AUC, UISO) is listed as 403.541. The compound further had a WAGA_AUC in [4] (NPC library, qHTS dose-response AUC, WAGA) of 370.924. Also, in [5] (NPC library, qHTS dose-response AUC, MKL1), the MKL1_AUC is recorded as 340.624. The compound further displayed an MKL2_AUC in experiment [6] (NPC library, qHTS dose-response AUC, MKL2) of 317.862. Moreover, the HACAT_AUC in experiment [7] (NPC library, qHTS dose-response AUC, HACAT control) is 428.222. The compound also gave an HEK293T_AUC in [8] (NPC library, qHTS dose-response AUC, HEK293T control) of 361.816. In experiment [9] (NPC library, qHTS dose-response AUC, NIH3T3 control), this compound had an NIH3T3_AUC of 433.353. The compound also came in with a CRL7250_AUC in [10] (NPC library, qHTS dose-response AUC, CRL7250 control) of 449.026. The compound further displayed an MCC_Avg_AUC in experiment [11] (NPC library) of 381.43. The compound also yielded a VP-MCC_Avg_AUC in [12] (NPC library) of 343.137. In experiment [12] (NPC library, therapeutic window: Control avg AUC minus VP-MCC avg AUC), this compound gave a Control-VP-MCC of 74.9673. The same compound returned a VN-MCC_Avg_AUC in experiment [13] (NPC library) of 419.723. Also, in [13] (NPC library, therapeutic window: Control avg AUC minus VN-MCC avg AUC), the Control-VN-MCC is -1.619. Further, the Control_Avg_AUC in experiment [14] (NPC library) is 418.104. Besides, the Control-MCC in [15] (NPC library, therapeutic window: Control avg AUC minus MCC avg AUC) is 36.6743.
